Experimental data taken from article PMC9604662, “New Ceramides and Cerebrosides from the Deep-Sea Far Eastern Starfish Ceramaster patagonicus” (Marine Drugs, 2022).

Key:
[1] = tested on: melanoma SK-MEL-28 cells; test: MTS cell viability assay, SK-MEL-28; type: cell-based; settings: Homo sapiens, 24 h exposure, mean ± SD, read-out: Half Maximal Inhibitory Concentration (IC50) SK-MEL-28
Experimental: (§1) In the present study, the cytotoxic activity of compounds 1–3, 5–7, and 9 against human normal embryonic kidney cells HEK293 and a panel of human cancer cells HT-29, SK-MEL-28, and MDA-MB-231 was measured by the MTS assay after 24 h of exposure. Different concentrations of doxorubicin (10, 50, and 100 µM), used as a positive control, and compounds 1–3, 5–7, and 9 (1, 10, and 50 µM) were studied.
(§2) The human embryonic kidney cells HEK293 (ATCC® CRL-1573™), the colorectal adenocarcinoma cell line HT-29 (ATCC® HTB-38), the melanoma SK-MEL-28 (ATCC® HTB-72™), and breast adenocarcinoma MDA-MB-231 (ATCC® HTB-26™) cell lines were obtained from the American Type Culture Collection (Manassas, VA, USA).
(§3) HT 29 cells were cultured in McCoy’s 5A medium; HEK293, SK-MEL-28, and MDA-MB-231 cell lines were maintained in the DMEM medium. The culture media were supplemented with 10% FBS and a 1% penicillin/streptomycin solution. The cell cultures were maintained at 37 °C in a humidified atmosphere containing 5% CO2.
(§4) Compounds 1–3, 5–7, and 9 were dissolved in a sterile dimethyl sulfoxide solution (DMSO) to prepare stock concentrations of 20 mM. Cells were exposed to serially diluted 1–3, 5–7, and 9 (1–100 µM) (with the culture medium used as a diluent) (the final concentration of DMSO was less than 0.5%).
(§5) Doxorubicin (Doxo) (Teva Pharmaceutical Industries, Ltd. (Israel)) was dissolved in sterile PBS to prepare stock concentrations of 10 mM. Cells were exposed to serially diluted Doxo (10–100 µM) (with the culture medium used as a diluent).
(§6) The effect of compounds 1–3, 5–7, and 9 on the viability of tested cell lines was evaluated by the MTS assay. HEK293 (1.0 × 10^4/200 µL), HT-29 (1.0 × 10^4/200 µL), SK-MEL-28 (0.8 × 10^4/200 µL), and MDA-MB-231 (1.0 × 10^4/200 µL) cells were seeded on a 96-well plate and incubated for 24 h at 37°C in a CO2 incubator. The cells were exposed to either DMSO (vehicle control) or Doxo at concentrations of […] (positive control) or 1–3, 5–7, and 9 at concentrations of 1, 10, and 50 µM for 24 h. The cells were subsequently incubated with 15 µL MTS reagent for 3 h, and the absorbance of each well was measured at 490/630 nm on a Power Wave XS microplate reader (BioTek, Winooski, VT, USA). The concentration at which a compound exerted half of its maximal inhibitory effect on cell viability (IC50) was calculated using the AAT-Bioquest® online calculator [27].

[2] = tested on: breast adenocarcinoma MDA-MB-231 cells; test: MTS cell viability assay, MDA-MB-231; type: cell-based, human; settings: for IC50: Homo sapiens, MDA-MB-231, MTS assay, 24 h exposure, mean ± SD, read-out: Half Maximal Inhibitory Concentration (IC50) MDA-MB-231; for cytotoxic activity against MDA-MB-231 cells (in words): concentrations of up to 50 µM, MTS, 24 h
Experimental: as §1, §2, §3, §4, §5, §6

[3] = tested on: human breast cancer cells MDA-MB-231; test: Soft agar colony formation assay; type: cell-based; settings: MDA-MB-231, 336 h, 14 days of incubation, read-out: inhibition of colony formation (decrease in number of colonies) of MDA-MB-231 cells
From the text: Since compounds 1–3, 5–7, and 9 inhibited the viability of breast cancer cells MDA-MB-231, we then tested their ability to inhibit colony formation of MDA-MB-231 cells using the soft agar assay. The colony formation assay, also referred to as soft agar assay, allows for screening the therapeutic efficacy of compounds for anchorage-independent cell growth, which is one of the hallmark characteristics of cellular transformation and uncontrolled growth of cancer cells.
Figure 4 The effect of compounds 1–3, 5–7, and 9 on colony formation of human breast cancer cells MDA-MB-231 (2.4 × 10^4) that were exposed to PBS (control), Doxo (5, 10, and 20 µM), or the compounds under study (5, 10, and 20 µM) and placed on dishes with 0.3% Basal Medium Eagle (BME) agar containing 10% fetal bovine serum FBS, 2 mM L-glutamine, and 25 µg/mL gentamicin. After 14 days of incubation, the number of colonies was counted under a microscope using the ImageJ software program.
MDA-MB-231 cells (2.4 × 10^4/mL) were exposed to either DMSO (vehicle control) or Doxo (positive control) at concentrations of 5, 10, and 20 µM, and to 1–3, 5–7, and 9 at concentrations of 5, 10, 20 µM. Then, the cells were applied on dishes with 0.3% BME agar containing 10% FBS, 2 mM L-glutamine, and 25 µg/mL gentamicin. The cultures were maintained at 37°C in a 5% CO2 incubator for 14 days. The number and size of the colonies were estimated under a Motic microscope AE 20 and using the ImageJ software bundled with 64-bit Java 1.8.0_112 (NIH, Bethesda, Maryland, USA).

[4] = tested on: human normal embryonic kidney cells HEK293; test: MTS cell viability assay, HEK293; type: cell-based; settings: 24 h exposure, mean ± SD, read-out: Half Maximal Inhibitory Concentration (IC50) HEK293
Experimental: as §1, §2, §3, §4, §5, §6

[5] = tested on: colorectal adenocarcinoma cell line HT-29; test: MTS cell viability assay, HT-29; type: cell-based; settings: Homo sapiens, 24 h exposure, mean ± SD, read-out: Half Maximal Inhibitory Concentration (IC50) HT-29
Experimental: as §1, §2, §3, §4, §5, §6

[6] = tested on: a number of human cancer cell lines; design: method as in doi:10.1021/jo00080a023, PMID 12192142; settings: at concentrations of 15–34 μM; ref [21],[28]; cited from earlier work
[7] = tested on: murine leukemic cells L1210; design: method as in doi:10.1021/jo00080a023, PMID 12192142; settings: at a concentration of 2 μM; ref [21],[28]; cited from earlier work

| IC50 [1] | IC50 [2] | IC50 [5] | Structure (SMILES) | cytotoxic activity against MDA-MB-231 cells (in words) [2] | inhibition at 20 µM [3] | IC50 [4] | cytotoxic activity against a number of human cancer cell lines (in words) [6] | cytotoxic activity against murine leukemic cells L1210 (in words) [7] |
| --- | --- | --- | --- | --- | --- | --- | --- | --- |
| > 50 µM | > 50 µM | > 50 µM | CCCCCCCCCCCCCC[C@@H](O)C(=O)N[C@@H](CO)[C@H](O)[C@H](O)CCCC/C=C\CCCCCCCCC(C)C [Compound 1, (2S,3S,4R,9Z)-2-[(2R)-2-hydroxyhexadecanoylamino]-19-methyl-9-icosen-1,3,4-triol] | slight cytotoxic activity | 46% | > 50 µM |  |  |
| > 50 µM | 48.7 ± 2.4 µM | > 50 µM | CCCCCCCCCCCCCC[C@@H](O)C(=O)N[C@@H](CO)[C@H](O)[C@H](O)CCCC/C=C\CCCCCCCCCCC(C)C [Compound 2, (2S,3S,4R,9Z)-2-[(2R)-2-hydroxyhexadecanoylamino]-21-methyl-9-docosen-1,3,4-triol] |  | 68% | > 50 µM |  |  |
| > 50 µM | 49.4 ± 1.6 µM | > 50 µM | CCCCCCCCCCCCCCC[C@@H](O)C(=O)N[C@@H](CO)[C@H](O)[C@H](O)CCCC/C=C\CCCCCCCCCCC(C)C [Compound 3, (2S,3S,4R,9Z)-2-[(2R)-2-hydroxyheptadecanoylamino]-21-methyl-9-docosen-1,3,4-triol] |  | 48% | > 50 µM |  |  |
| > 50 µM | 48.7 ± 1.8 µM | > 50 µM | CCCCCCC/C=C/C(C)=C/CC/C=C/[C@@H](O)[C@H](CO[C@@H]1O[C@H](CO)[C@@H](O)[C@H](O)[C@H]1O)NC(=O)[C@H](O)CCCCCCCCCCCCCCCCCCCC [Compound 5, ophidiacerebroside C] |  | 54% | > 50 µM | moderate cytotoxic activity | strong cytotoxic activity |
| > 50 µM | 40.5 ± 0.5 µM | > 50 µM | CCCCCCC/C=C/C(C)=C/CC/C=C/[C@@H](O)[C@H](CO[C@@H]1O[C@H](CO)[C@@H](O)[C@H](O)[C@H]1O)NC(=O)[C@H](O)CCCCCCCCCCCCCCCCCCCCC [Compound 6, ophidiacerebroside D] |  | 68% | > 50 µM | moderate cytotoxic activity | strong cytotoxic activity |
| > 50 µM | > 50 µM | > 50 µM | CCCCCCCCCCCCCCCCCCCC[C@@H](O)C(=O)N[C@@H](CO[C@@H]1O[C@H](CO)[C@@H](O)[C@H](O)[C@H]1O)[C@H](O)[C@H](O)CCCCCCCCCC(C)CC (some centres unmarked) [Compound 7, CE-3-2] | slight cytotoxic activity | 44% | > 50 µM |  |  |
| > 50 µM | > 50 µM | > 50 µM | CCCCCCCCCCCCCCCCCCCCCC[C@@H](O)C(=O)N[C@@H](CO[C@@H]1O[C@H](CO)[C@@H](O)[C@H](O)[C@H]1O)[C@H](O)[C@H](O)CCCCCCCCCC(C)CC (stereo partly drawn) [Compound 9, (2S,3S,4R)-1-O-(β-D-glucopyranosyl)-2-[(2R)-2-hydroxytetracosanoylamino]-14-methylhexadecan-3,4-diol] | slight cytotoxic activity | 50% | > 50 µM |  |  |
| 40 ± 5 µM | 22.3 ± 0.2 µM | 21.8 ± 3.2 µM | COc1cccc2c1C(=O)c1c(O)c3c(c(O)c1C2=O)C[C@@](O)(C(=O)CO)C[C@@H]3O[C@H]1C[C@H](N)[C@H](O)[C@H](C)O1 [Doxorubicin, reference compound] |  | 70% | 35.7 ± 1.2 µM |  |  |
